Read-outs that look alike come from different tables or passages of the source.
What was measured:
Mongrel dogs = assay: Protocol HV: acute left ventricular failure by coronary microsphere embolization, closed chest; type: in vivo; conditions: for overall result in the model of acute left ventricular failure / preload reduction: dog, in vivo
Experimental: - Experiments were carried out in 21 mongrel dogs of either sex with body weight between 19 and 39 kg. Anesthesia was induced with sodium pentobarbital, 25 mg/kg of body weight intravenously, and small supplementary doses were given as necessary to maintain a constant level of anesthesia. The dogs were placed in the left lateral position and ventilation was maintained through a cuffed endotracheal tube with a volume-controlled respirator (Harvard Apparatus Co., Millis, Massachusetts). Polyethylene cannuleae were placed into the jugular and femoral veins for intravenous infusions and drug adminstration. Electrocardiograms (lead aVF) were monitored continuously throughout the experiments.
A polyethylene cannula was introduced into the aorta through the left carotid artery to record arterial pressure. (Stantham P23 ID transducer, Stantham Instruments, Inc. Oxnard, California). A Millar microtip transducer catheter (Millar Instruments, Inc., Houston, Texas) was introduced into the left ventricular cavity through the femoral artery to measure left ventricular pressures. For adjustment of zero level, left ventricular pressure was also measured through the fluid-filled lumen in the Millar catheter (Statham P23 ID transducer). The maximal rate of rise of left ventricular pressure, LV dP/dt, was recorded by means of a differentiator. All these parameters were recorded continuously on a polygraph (Gould 2800, Gould Instruments, Cleveland, Ohio). Cardiac output was determined by the thermodilution technique, using a thermistor catheter in the pulmonary artery and calculated by a cardiac output computer (Elecath, Electro- catheter Corp., Rahway, New Jersey). The coefficient of variation for duplicate CO measurements was 5%. In addition to the parameters directly obtained, total peripheral vascular resistance was calculated from the ratio of […] and cardiac output. Stroke volume was calculated by dividing cardiac output by heart rate. Heparin (Invendex) (5000 IU) was administered to avoid clotting of the catheters.
To induce acute left vetricular failure, initially the left main coronary artery was catheterized with a Judkin coronary artery catheter (7F, ISCI Cardiology and Radiology Products, Billerica, Massachusetts) under fluoroscopic control. It was introduced through a femoral artery, and polystyrene microspheres (3M Company, St. Paul, Minnesota) with a diameter of 52. 5 ± 4.0 µm (mean±SD) were injected into the coronary artery. The microspheres were used in a concentration of 1 mg (i.e., 12,000) per ml saline. The first dose of microsphere solution was 0.5 mi/kg body weight, and all subsequent doses were 0.25 ml/kg body weight, administered every 5 minutes. Administration of microspheres was discontinued when LV/dP/dt had been reduced by 30% or more when measured 4 minutes after the last dose. All dogs received prophylactic antiarrhythmic treatment with intravenous lidocaine, 1.5 mg/kg body weight as a bolus 20 min after the end of embolization, followed by a continuous infusion of […].
Forty-five minutes were allowed to elapse to verify the stability of the preparation. If Lv dP/dt or left ventricular end diastolic pressure had changed by 20% or more between 30 and 45 minutes after embolization, the dogs were excluded from this study and not randomized. Forty-five minutes after the end of embolization, the dogs were assigned randomly to three groups: a) Berberine-treated group, 0.2 mg/kg/ min, dissolved in 60 ml of a solution of 5% dextrose in water administered in a constant infusion during 30 minutes; b) ouabain-treated group, 0.03 mg/kg was administered in 60 ml of a 5% solution of dextrose in water during 30 minutes; and c) Control group, administration of 60 ml of a 5% solution of dextrose in water during 30 min. […]

[1] = tested on: closed-chest anesthetized dogs; conditions: for change of diastolic pressure: berberine in addition to digitalis; for antiarrhythmic and antiarrhythmogenic result in the ouabain experiment: dog, in vivo
Experimental: A study was carried out to examine the effects of the simultaneous administration of berberine on digitalis (i.e. ouabain) produced arrhythmias.
The experiments were conducted in closed-chest anesthetized dogs which were randomized to three groups. All received ouabain 0.03 mg/Kg as a bolus intravenously and thereafter a continuous infusion with a constant rate of 0.0006 mg/Kg/min until death. […] The second group received simultaneously berberine 1 mg/Kg intravenously as a bolus and then 0.2 mg/Kg/min as a continous infusion. The third group received berberine only after the appearance of VEA in a frequency of 50% of more of all systoles.
Moreover, the effects of intravenous bolus injection of berberine (0.4 to 1 mg/Kg) was studied (in comparison to dextrose 5% injection).

Sprague-Daley rats = assay: Rat model of acute coronary artery occlusion, mortality; type: in vivo; conditions: for antiarrhythmic control after coronary artery occlusion: rat, in vivo
Text: Another series of experiments were done using the rat model of acute coronary artery occlusion. In these experiments the effect of berberine was examined on mortality. Thus, Sprague-Daley rats (Charles River) weighing over 300 grams were anesthetized with ether, their chest opened in the 5th left intercostal space their heart everted and the left main coronary occluded with a surgical stitch. Thereafter the heart was repositioned and the thorax closed with a purse string suture, as described in more detail by us previously (Maclean, Fishbein, M. C. Braunwald, E. and Maroco, P. R., Long Term Presentation of Ischemic Myocardium After Experimental Coronary Artery Occlusion. J. Clin. Inv. 61, pages 541-551, 1978 and also in Maclean, D., Fishbein, M. D., Maroko, P. R. and Braunwald, Hyaluronidase-Induced Reductions In Myocardial Infarct Size. Science, 194, pages 199-200 (1976)). The mortality in rats weighing over […] was greater than in smaller rats.
After finishing the surgical procedure, the rats were randomized into controls (injection of 5% dextrose in water) and berberine treated (1 mg/Kg intravenously as a bolus).

[2] = tested on: closed-chest barbiturate anesthetized dogs; assay: Endotoxic (LPS) shock in dogs; type: in vivo
Experimental: Nineteen closed-chest barbiturate anesthetized with artificial respiration dogs were studied. All measurements were done by the technique described before LPS.
At this time, i.e., two hours and fifteen minutes after administration of LPS, 1000 ml of 5% of dextrose in water was administered to all dogs during the next forty-five minutes.
Urinary output during the second hour of shock (before berberine or placebo treatments) and the third hour of shock (when the dogs were treated with either berberine of placebo) were compared in each dog. This analysis is of crucial importance since it would indicate the restoration of effective organ perfusion which in the case of the kidneys results in urinary output.

[3] = berberine started after the appearance of 50% of VEA

Compound: COc1ccc2cc3[n+](cc2c1OC)CCc1cc2c(cc1-3)OCO2 [berberine]
- time to increase of LVdP/dt and reduction of left ventricular end diastolic pressure (Mongrel dogs; 0.2 mg/kg/min infusion): ≤ 2.5 min
- Diastolic and mean arterial pressure (Mongrel dogs; 0.2 mg/kg/min, 30 min): significantly although only slightly reduced
- Systolic arterial pressure (Mongrel dogs; 0.2 mg/kg/min, 30 min): not significantly changed
- decrease of total peripheral vascular resistance (Mongrel dogs; 0.2 mg/kg/min, 30 min): 19 ± 2%
- fall of heart rate (Mongrel dogs; 0.2 mg/kg/min, 30 min): 8 beats/min
- increase of LVdP/dt (Mongrel dogs; 0.2 mg/kg/min, end of the 30-minute infusion): 28 ± 8%
- cardiac output (Mongrel dogs; after infusion, from 1.76 ± 0.15): 1.93 ± 0.16 L/min
- Stroke volume (Mongrel dogs; after infusion, from 14.6 ± 1.9): 17.3 ± 2.7 mL
- pulse pressure (Mongrel dogs; after infusion, from 28 ± 2): 33 ± 4 mmHg
- Total peripheral vascular resistance (Mongrel dogs; after infusion, from 4915 ± 559): 4004 ± 496 10^-5N·S·cm^-5
- decrease of left venticular end diastolic pressure (Mongrel dogs; end of the 30-minute infusion): 38 ± 4%
- Left venticular end diastolic pressure (Mongrel dogs; end of the 30-minute infusion, from 13.3 ± 0.8): 8.1 ± 0.5 mmHg
- LVdP/dt (Mongrel dogs; end of the 30-minute infusion, from 1572 ±80): 2010 ± 95 mmHg/s
- occurrence of any arrhythmias (VEA more than 25%, VT or death) ([1]; after 60 minutes, all sixteen controls had): three had arrhythmias and six did not
- occurrence of any arrhythmias (VEA more than 25%, VT or death) ([1]; after 90 minutes, all controls had): four had arrhythmias and five did not
- occurrence of any arrhythmias (VEA more than 25%, VT or death) ([1]; at 30 minutes, control twelve had, four did not): one had arrhythmia and eight did not
- occurrence of any arrhythmias (VEA more than 25%, VT or death) ([1]; at 45 minutes, control fourteen had, two did not): three had arrhythmias and six had not
- change of diastolic pressure ([1]; 10 minutes): -9±5%
- change of diastolic pressure ([1]; 20 minutes): -13±9%
- change of diastolic pressure ([1]; 30 minutes): -13±10%
- change of diastolic pressure ([1]; 60 minutes): -20±11%
- amount of ouabain that provoked VT [1, 3]: 0.080 mg/kg
- delay of the appearance of sustained VT [1, 3]: more than 250%
- time of appearance of sustained VT ([1]; berberine started after the appearance of 50% of VEA, control 30.1±6.5): 84.5 ± 13.8 min
- dose of ouabain to provoke VT ([1]; berberine treated dogs (simultaneous)): 0.088 mg/kg
- injections effective in reverting VT into sinus rhythm within five minutes ([1]; intravenous bolus 0.4 to 1 mg/Kg, placebo none of twelve): 30 out of 41
- time of appearance of 25% of VEA ([1]; ouabain infusion + simultaneous berberine 1 mg/Kg bolus then 0.2 mg/Kg/min, controls 22±4.7): 66.5 ± 14.6 min
- prolongation of the time of appearance of VEA and VT ([1]; simultaneous berberine): around 300%
- time of appearance of 50% of VEA ([1]; simultaneous berberine, controls 23.9±4.7): 66.7 ± 15.3 min
- time of appearance of VT ([1]; simultaneous berberine, controls 30.1±6.5): 96.1 ± 15.1 min
- ventricular fibrillation ([1]; two berberine dogs): ventricular fibrillation reverted without any other therapy
- rats that died within the first fifteen minutes (Sprague-Daley rats; 1 mg/Kg intravenously as a bolus, controls seventeen out of twenty-four): six out of twenty- two
- systemic systolic arterial pressure ([2]; after 1000 ml of 5% dextrose in water, controls 107±5, before shock 136±10): 127±6 mmHg
- dP/dt higher than before shock ([2]; after dextrose): approximately 50%
- peak left ventricular dP/dt ([2]; after dextrose, before shock 2565±166): 3740 ± 305 mmHg/s
- cardiac arrhythmias or conduction defect ([2]; dog, in vivo): No cardiac arrhythmias or conduction defect was observed
- increase of urinary output from the second (pre-treatment) to the third (treatment) hour ([2]; first statement, control -51.7±32.9): 30.5 ± 32.9 mL/h
- increase of urinary output from the second (pre-treatment) to the third (treatment) hour ([2]; second statement): 30.5±14.3 mi
- minimal dose that results in an elevation of systemic systolic arterial pressure by at least 5 mmHg ([2]; two hours after LPS 5 mg): 0.053 ± 0.008 mg/kg/min
- peak left ventricular dP/dt ([2]; within fifteen minutes of treatment, control 1050±145): 2062±204 mmHg/s
- pulse pressure (systolic minus diastolic pressures) ([2]; within fifteen minutes of treatment, from 24±2): 32±2 mmHg
- systolic pressure ([2]; within fifteen minutes of treatment, placebo 50±6): 66±4 mmHg

Compound: COc1cc2c(cc1O)C[C@H]1c3cc(O)c(OC)cc3CCN1C2 [coreximine]
- overall result in the model of acute left ventricular failure (Mongrel dogs): perform in an equivalent manner
- preload reduction (Mongrel dogs): comparable preload reduction
- antiarrhythmic and antiarrhythmogenic result in the ouabain experiment [1]: satisfactory results
- antiarrhythmic control after coronary artery occlusion (Sprague-Daley rats): like antiarrhythmic control is observable
- control of endotoxic shock caused by LPS ([2]; dog, in vivo): comparable results

Compound: COc1ccc2cc3[n+](cc2c1O)CCc1cc2c(cc1-3)OCO2 [berberrubine]
- overall result in the model of acute left ventricular failure (Mongrel dogs): perform in an equivalent manner
- preload reduction (Mongrel dogs): comparable preload reduction
- antiarrhythmic and antiarrhythmogenic result in the ouabain experiment [1]: satisfactory results
- antiarrhythmic control after coronary artery occlusion (Sprague-Daley rats): like antiarrhythmic control is observable
- control of endotoxic shock caused by LPS ([2]; dog, in vivo): comparable results

From patent publication EP0108147B1, “Use of a protoberberine alkaloid and composition containing same” (MAROKO, Peter R., priority 1982, dated 1983)
